Laboratory results published in PMC6384781, “Design, Synthesis, Docking Studies and Monoamine Oxidase Inhibition of a Small Library of 1-acetyl- and 1-thiocarbamoyl-3,5-diphenyl-4,5-dihydro-(1H)-pyrazoles” (Molecules, 2019).

Key:
[1] = target: T1, hMAO-A (Homo sapiens, UniProt P21397); assay: hMAO-A inhibition, Amplex Red fluorometric assay with kynuramine substrate; type: biochemical; settings: recombinant hMAO-A, kynuramine 50 µM, mean ± SD of triplicate, max tested 100 µM
T1 construct: purchased Sigma-Aldrich; host or cells: insect cells (microsomes)
T1 sequence (P21397 1-527): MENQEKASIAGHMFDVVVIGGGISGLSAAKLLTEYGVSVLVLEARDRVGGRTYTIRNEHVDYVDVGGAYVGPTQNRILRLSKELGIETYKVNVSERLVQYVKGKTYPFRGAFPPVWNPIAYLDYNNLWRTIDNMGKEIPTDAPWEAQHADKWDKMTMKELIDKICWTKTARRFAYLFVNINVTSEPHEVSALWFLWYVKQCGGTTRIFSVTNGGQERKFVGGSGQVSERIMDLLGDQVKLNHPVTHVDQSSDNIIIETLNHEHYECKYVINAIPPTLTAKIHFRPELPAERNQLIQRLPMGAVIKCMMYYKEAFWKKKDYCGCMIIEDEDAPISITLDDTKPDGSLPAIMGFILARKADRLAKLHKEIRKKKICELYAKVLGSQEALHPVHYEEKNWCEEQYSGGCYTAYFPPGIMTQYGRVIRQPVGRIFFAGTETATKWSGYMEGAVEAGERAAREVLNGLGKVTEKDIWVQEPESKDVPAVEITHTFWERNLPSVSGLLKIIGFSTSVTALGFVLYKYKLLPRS
Experimental: (§1) The synthesized compounds P1–P18 were evaluated as hMAO inhibitors using the recombinant hMAOs as enzyme sources and kynuramine as substrate. A fluorometric method based on the Amplex® Red reagent (λex = 560 nm; λem = 590 nm) was used to measure hMAO activity. In this horseradish peroxidase-linked assay, Amplex® Red reacts with hydrogen peroxide that is produced by the MAO catalytic cycle to yield a fluorescent product, resorufin [28]. By thus recording the MAO-catalyzed formation of hydrogen peroxide in the presence of different concentrations of a test inhibitor, sigmoidal plots of enzyme activity versus the logarithm of inhibitor concentration were constructed from which IC50 values were estimated (GraphPad Prism 5). All IC50 values were measured in triplicate and are expressed as the mean ± standard deviation (SD). The inhibitory activities of compounds P1–P18 are summarized in Table 1 along with selectivity index (SI) values which are the ratio of IC50(hMAO-A)/IC50(hMAO-B). SI < 1 indicates selectivity for MAO-A, whereas SI > 1 indicates selectivity for the MAO-B isoform.
(§2) Microsomes from insect cells expressing recombinant hMAO-A or hMAO-B (5 mg protein/mL) served as enzyme sources, and were pre-aliquoted and stored at −70 °C. All enzymatic reactions were carried out to a final volume of 200 µL in black 96-well microtiter plates (Corning). Potassium phosphate buffer (100 mM, pH 7.4, made isotonic with KCl) served as reaction solvent. The reactions contained kynuramine (50 µM), various concentrations of the test inhibitor (0.003–100 μM), horseradish peroxidase (1 unit/mL) and Amplex® Red (200 µM). Stock solutions of the test inhibitors were prepared in DMSO and added to the reactions to yield a final concentration of 4% (v/v) DMSO. The reactions were initiated with the addition of hMAO-A (0.0075 mg protein/mL) or hMAO-B (0.015 mg protein/mL), and incubated at 37 °C for 20 min in a convection oven. At endpoint, the reactions were terminated with the addition of 10 μL pargyline (20 mM) and 10 μL (R)-deprenyl (5 mM) for hMAO-A and hMAO-B, respectively. The concentrations of resorufin in the reactions were determined by fluorescence spectrophotometry (λex = 560 nm, λem = 590 nm). Resorufin was quantitated with a linear calibration curve, which was constructed from standard solutions containing hydrogen peroxide (0.05–1.6 µM). Each standard was prepared to a final volume of 200 μL in potassium phosphate buffer and also contained horseradish peroxidase (1 unit/mL), Amplex® Red (200 µM), 4% DMSO as co-solvent, 10 μL pargyline (20 mM) for hMAO-A and 10 μL (R)-deprenyl (5 mM) for hMAO-B. The IC50 values were determined by constructing sigmoidal curves of MAO catalytic activity versus the logarithm of inhibitor concentration. For this purpose, the one site competition model incorporated into the Prism 5 software package (GraphPad, San Diego, CA, USA) was used. All experiments were carried out in triplicate and the IC50 values are expressed as mean ± standard deviation (SD).

[2] = target: T2, hMAO-B (Homo sapiens, UniProt P27338); assay: hMAO-B inhibition, Amplex Red fluorometric assay with kynuramine substrate; type: biochemical
T2 construct: purchased Sigma-Aldrich; host or cells: insect cells (microsomes)
T2 sequence (P27338 1-520): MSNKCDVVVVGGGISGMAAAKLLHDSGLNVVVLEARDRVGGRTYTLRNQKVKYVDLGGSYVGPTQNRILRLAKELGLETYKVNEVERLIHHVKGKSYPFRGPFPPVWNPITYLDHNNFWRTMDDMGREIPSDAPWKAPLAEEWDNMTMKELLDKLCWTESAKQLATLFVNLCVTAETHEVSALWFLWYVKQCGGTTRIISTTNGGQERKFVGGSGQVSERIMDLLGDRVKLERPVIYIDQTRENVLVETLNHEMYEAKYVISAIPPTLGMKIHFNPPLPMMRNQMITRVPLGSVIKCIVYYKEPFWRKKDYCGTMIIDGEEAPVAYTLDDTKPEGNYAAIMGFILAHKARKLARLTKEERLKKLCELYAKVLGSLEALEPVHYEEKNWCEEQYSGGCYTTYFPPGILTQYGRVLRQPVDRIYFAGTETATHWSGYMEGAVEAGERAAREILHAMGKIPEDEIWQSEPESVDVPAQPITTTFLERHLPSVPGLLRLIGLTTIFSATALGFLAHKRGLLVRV
Experimental: as §1, §2

CC(=O)N1N=C(c2ccc(OCC=C(C)C)cc2)CC1c1cccc(Cl)c1 (stereo not shown) [Compound P14, 1-(5-(3-chlorophenyl)-3-(4-((3-methylbut-2-en-1-yl)oxy)phenyl)-4,5-dihydro-1H-pyrazol-1-yl)ethan-1-one]
IC50 [1]: 4130 ± 260 nM
melting point: 85 to 88 °C
SI (selectivity index for the hMAO-B isoform) ([2]; ratio IC50(hMAO-A)/IC50(hMAO-B), SI > 1 = MAO-B selective): 3.82
IC50 ([2]; recombinant hMAO-B, kynuramine 50 µM, mean ± SD of triplicate, max tested 100 µM): 1080 ± 50 nM
